Assay type in all cases: cell-based
In series [1] the test system is sirtuin enzymatic activity (sirt1 enzymatic activity). In words: Sirtuin enzymatic activity in cell solution of human epidermal keratinocytes, CycLex SIRT1/Sir2 Deacetylase Fluorometric Assay Kit (Test Example 2). The following applies: 10 ng/ml final concentration; cell crude extract. As to the method: Human epidermal keratinocytes were treated in the same manner as in Test Example 1, except that the final concentration of the hyaluronic acid fragment was 10 ng/ml, the size thereof being four sugar units (4mer), six sugar units (6mer), or 10 sugar units (10mer), while measuring the sirtuin enzymatic activity (sirt1 enzymatic activity) in the cell solution thereof. For purposes of comparison, 10 kDa or 900 kDa hyaluronic acid, and resveratrol, a known sirtuin activator, were likewise tested at 10 ng/ml final concentration. A human sirtuin recombinant protein (recombinant human sirt1) produced through genetic recombination techniques was used as a substance for verification of the measurement system. Sirtuin enzymatic activity in the cell crude extract was measured with the CycLex SIRT1/Sir2 Deacetylase Fluorometric Assay Kit (trade name of CycLex), following the protocol of the kit.

Series [2] has as its system human sirtuin proteins (SIRT1). In words: Sirtuin induction in human epidermal keratinocytes, anti human SIRT1 antibody staining (Test Example 1). Particulars: 24 hours. The protocol:
Human epidermal keratinocytes (normal human keratinocytes from a person) were cultured and prepared. Following culture of the human keratinocytes in a prolonged culture growth medium (EpiLife-KG2) at 37° C. under 5% CO2, the cells were recovered by trypsin treatment. The cells were then inoculated into a 96-well plate (100 μL per well) and cultured overnight. Following completion of culture, the culture broth from each well was transferred to a culture medium (keratinocyte SFM made by Gibco) to which no hyaluronic acid fragments were added, or to the same culture medium to which a hyaluronic acid fragment (4mer) was added to a final concentration of 0.01 ng/ml, 0.1 ng/ml, 1.0 ng/ml, or 10 ng/ml, and cultured for 24 hours.
After 24 hours had passed, the cells in each well were stained with the anti human SIRT1 antibody. The anti human SIRT1 antibody is an antibody that recognizes and stains human sirtuin proteins. The stained cells were observed under a microscope (made by Nikon), taking photographs of cell morphology and stained images of cells.

In series [3] the test system is human epidermal keratinocytes. Nature of the series: Change in size of human epidermal keratinocytes, image analysis (Test Example 3). The following applies: surface area on the image of a single cell; 0.01 ng/ml, 24 hours. The protocol:
A test of sirtuin induction in human epidermal keratinocytes was conducted in the same manner as in Test Example 1.
The change in cell size was analyzed using image analysis software (“Image J”). The 5 results in Table 2 are graphed in FIG. 5. The pixel count in the results indicates surface area on the image of a single cell, with higher values considered to indicate larger cells.

Series [4] relates to Hepatocyte growth factor expression (mRNA). Nature of the series: Induction of hepatocyte growth factor in human epidermal keratinocytes, DNA microarray (Test Example 13). Particulars: 10 ng/ml, 24 hours; Cy5, DNA microarray. The protocol:
Human epidermal keratinocytes (normal human keratinocytes from a person) were cultured respectively in a culture medium containing 10 ng/ml of four-unit hyaluronic acid fragment (4mer), and a culture medium containing no hyaluronic acid fragments (untreated), for 24 hours. For the culture medium, a serum-free medium for use with normal human keratinocytes, made by DS Pharma Biomedical Co. Ltd. was employed. After culture, the cells were recovered and analyzed with a DNA microarray (DNA chip).

Series [5] concerns human neural stem cells (neurospheres). Nature of the series: Action on human neural stem cells, Nestin/Tubulin double staining (Test Example 7). The following applies: 10 ng/ml, 12 days. The protocol:
Human neural stem cells (neurospheres) (trade name Gibco Human Neural Stem Cells (H9-Derived) made by Gibco) were cultured in Neurobasal Media (trade name, made by Gibco) culture medium at 37° C. under 5% CO2, and the cells were recovered by trypsin treatment. The cells were then inoculated into a 96-well plate (100 μL per well) and cultured overnight. Following completion of culture, the culture broth from each well was transferred to Neurobasal Media (trade name, made by Gibco) culture medium to which no hyaluronic acid fragments were added, or to the same medium to which hyaluronic acid fragment (L3mer) had been added to a final concentration of 10 ng/ml, and cultured for 12 days
After 12 days had passed, the cells in each well were double-stained with anti human Nestin antibody and anti human Tubulin antibody. Nestin is a protein that is specifically expressed in neural stem cells, and is a neural stem cell marker. The stained cells were observed under a microscope (made by Nikon), taking photographs of cell morphology and stained images of cells.

The test system is the same in series [6]. In words: Hydrogen peroxide induced aging of human neural stem cells, microscopy (Test Example 20). Particulars: 24 hours. As to the method: It was investigated whether the process, in which human neural stem cells (neurospheres) experienced cellular aging (vacuolar degeneration and hypertrophy) when treated with hydrogen peroxide, is affected by treatment with the hyaluronic acid fragment. Specifically, the following test was performed.
Human neural stem cells (neurospheres) (trade name Gibco Human Neural Stem Cells (H9-Derived) made by Gibco) were cultured in Neurobasal Media (trade name, made by Gibco) culture medium at 37° C. under 5% CO2. Hydrogen peroxide was added to the culture medium to a final concentration of 10 μM to bring about stimulation for a 15-minute period, and the culture broth was then transferred to Neurobasal Media culture medium (made by Gibco) containing no hyaluronic acid fragments; to the same culture medium containing hyaluronic acid fragment (L3mer) in a final concentration of 100 ng/ml; or to the same culture medium containing hyaluronic acid fragment (L3mer) plus TLR4/MD2 added to a final concentration of 10 μg/ml, and cultured for 24 hours.
After 24 hours, the cells were examined with an inverted microscope.

Series [7] has as its system rat bone marrow mesenchymal stem cells. In words: Hydrogen peroxide induced aging of rat bone marrow mesenchymal stem cells, PI dead cell count (Test Example 21). Particulars: 2 hours. As to the method:
It was investigated whether the process, in which rat bone marrow mesenchymal stem cells experienced cellular aging (increased cell death) when treated with hydrogen peroxide, is affected by treatment with the hyaluronic acid fragment. Specifically, the following test was performed.
Using a DMEM culture medium (made by Wako Pure Chemical Industries, Ltd.), rat bone marrow mesenchymal stem cells were cultured by usual methods at 37° C. under 5% CO2. Hydrogen peroxide was added to the culture medium to a final concentration of 1 μM to bring about stimulation for a 15-minute period, and the culture broth was then transferred to DMEM culture medium containing no added hyaluronic acid fragments; to DMEM culture medium containing hyaluronic acid fragment (L3mer) added to a final concentration of 100 ng/ml; or to DMEM culture medium containing the hyaluronic acid fragment (L3mer) plus TLR4/MD2 added to a final concentration of 10 μg/ml, and cultured for 2 hours.
After 2 hours had passed, PI ([…]), which emits red fluorescence upon uptake into dead cells, was added to the culture medium to a final concentration of 5 μg/ml, and after incubation for 15 minutes, the condition of appearance of dead cells was examined with a fluorescence microscope.

Setting [8] is: 100 ng/ml plus TLR4/MD2 10 μg/ml.

Two molecules from patent US20150018305A1, “SIRTUIN INDUCER, TISSUE REPAIRING AGENT, HEPATOCYTE GROWTH FACTOR INDUCER, TISSUE HOMEOSTASIS MAINTENANCE AGENT, AND TLR4 AGONIST, HAVING HYALURONIC ACID FRAGMENT AS ACTIVE INGREDIENT” (HYALURONAN RESEARCH INSTITUTE, INC., priority 2012, published 2015) can be followed below.

As to `CC(=O)N[C@H]1[C@H](O[C@H]2[C@H](O)[C@@H](O)[C@H](O[C@H]3[C@H](O)[C@@H](CO)OC(O)[C@@H]3NC(C)=O)O[C@@H]2C(=O)O)O[C@H](CO)[C@@H](O)[C@@H]1O[C@@H]1O[C@H](C(=O)O)[C@@H](O)[C@H](O)[C@H]1O` (stereo partly shown) [4mer, GlcA(-GlcNAc-GlcA)1-GlcNAc], in series [1], the “sirtuin enzymatic activity (sirt1 enzymatic activity) compared with negative control” value is given as “approximately triple”. Moreover, the Average staining intensity in series [2] (0.01 ng/ml) was found to be 6.33; in series [2] (0.1 ng/ml), 6.35; in series [2] (1.0 ng/ml) it was 6.52; in series [2] (10 ng/ml), 6.54. In addition, the Average pixel count in series [3] is reported as 124515.9333. Also, the “Fluorescent intensity, Hepatocyte growth factor expression in keratinocytes (mRNA)” value in series [4] came to 200.40.
On to `CC(=O)NC1C(O[C@@H]2OC(C(=O)O)[C@@H](O)C(O)C2O)[C@H](O)C(CO)O[C@H]1O[C@@H]1C(C(=O)O)O[C@@H](OCCCN=[N+]=[N-])C(O)C1O` (stereo partly shown) [L3mer], for which, in series [5], the “expression of Nestin and Tubulin” value is “expression of both Nestin and Tubulin was confirmed”; the “process formation (morphology)” value is recorded as “process formation was confirmed”. For the same molecule, the “suppression of cellular aging with TLR4/MD2 added” value in series [6] (setting [8]) was “inhibited by addition of TLR4/MD2”. In series [6] (hydrogen peroxide 10 μM, 100 ng/ml), the “hydrogen peroxide-induced cellular aging (vacuolar degeneration and hypertrophy)” value was “suppressed”. Moreover, the “suppression of cell death with TLR4/MD2 added” value in series [7] (setting [8]) is “inhibited by addition of TLR4/MD2”. Also, the “hydrogen peroxide-induced cellular aging (increased cell death, dead cells per unit visual field)” value in series [7] (hydrogen peroxide 1 μM, 100 ng/ml, PI staining) is recorded as “suppressed”.
